Source: the kinase profiling compilation of Christmann-Franck et al. (2016)

How the values were obtained:
Test in all cases: radiometric filter-binding kinase assay, Kinase HotSpot
Details in all cases: compound 0.5 µM; ATP 10 µM
ROS1 (human) = ROS1 (human) (UniProt P08922)
CHEK1 (human) = CHEK1 (human) (UniProt O14757)
ABL2 (human) = ABL2 (human) (UniProt P42684)
TBK1 (human) = TBK1 (human) (UniProt Q9UHD2)
MAPK10 (human) = MAPK10 (human) (UniProt P53779)
IRAK1 (human) = IRAK1 (human) (UniProt P51617)
MAPK8 (human) = MAPK8 (human) (UniProt P45983)
IKBKB (human) = IKBKB (human) (UniProt O14920)
DYRK4 (human) = DYRK4 (human) (UniProt Q9NR20)
ROCK1 (human) = ROCK1 (human) (UniProt Q13464)
PRKD2 (human) = PRKD2 (human) (UniProt Q9BZL6)
TSSK2 (human) = TSSK2 (human) (UniProt Q96PF2)
PRKCB2 (human) = PRKCB2 (human) (UniProt P05771)
[1] = biological target: JAK1 JH1 catalytic (human) (UniProt P23458)
PAK7 (human) = PAK7 (human) (UniProt Q9P286)
CAMK2D (human) = CAMK2D (human) (UniProt Q13557)
BRAF (human) = BRAF (human) (UniProt P15056)
MAPKAPK5 (human) = MAPKAPK5 (human) (UniProt Q8IW41)
PIM3 (human) = PIM3 (human) (UniProt Q86V86)
CSNK2A2 (human) = CSNK2A2 (human) (UniProt P19784)
MARK4 (human) = MARK4 (human) (UniProt Q96L34)
MAP3K11 (human) = MAP3K11 (human) (UniProt Q16584)
MAPK11 (human) = MAPK11 (human) (UniProt Q15759)
PRKCD (human) = PRKCD (human) (UniProt Q05655)
PRKCH (human) = PRKCH (human) (UniProt P24723)
CSNK1A1 (human) = CSNK1A1 (human) (UniProt P48729)
STK39 (human) = STK39 (human) (UniProt Q9UEW8)
CSNK1G3 (human) = CSNK1G3 (human) (UniProt Q9Y6M4)
ROCK2 (human) = ROCK2 (human) (UniProt O75116)
DYRK1B (human) = DYRK1B (human) (UniProt Q9Y463)
EPHB1 (human) = EPHB1 (human) (UniProt P54762)
PAK4 (human) = PAK4 (human) (UniProt O96013)
STK17A (human) = STK17A (human) (UniProt Q9UEE5)
SIK2 (human) = SIK2 (human) (UniProt Q9H0K1)
ABL1 (human) = ABL1 (human) (UniProt P00519)
CDK4 CCND1 (human) = CDK4 CCND1 (human) (UniProt P24385+P11802)
CLK4 (human) = CLK4 (human) (UniProt Q9HAZ1)
JAK2 JH1 JH2 (human) = JAK2 JH1 JH2 (human) (UniProt O60674)
NUAK1 (human) = NUAK1 (human) (UniProt O60285)
MAPK3 (human) = MAPK3 (human) (UniProt P27361)
Chain of MAPK3 (human) (P27361 whole entry, looked up): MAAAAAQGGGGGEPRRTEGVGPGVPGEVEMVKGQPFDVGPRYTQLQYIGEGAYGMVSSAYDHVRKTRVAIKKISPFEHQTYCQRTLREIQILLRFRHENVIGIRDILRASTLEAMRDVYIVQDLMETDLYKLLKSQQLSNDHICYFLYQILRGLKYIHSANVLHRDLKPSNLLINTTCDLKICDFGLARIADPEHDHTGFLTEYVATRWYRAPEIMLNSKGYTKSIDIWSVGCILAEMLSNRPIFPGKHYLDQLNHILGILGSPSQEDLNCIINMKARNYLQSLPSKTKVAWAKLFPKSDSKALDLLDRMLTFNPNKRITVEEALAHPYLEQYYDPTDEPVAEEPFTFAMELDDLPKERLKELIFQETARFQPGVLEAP

Chain of MAPK11 (human) (Q15759 whole entry, looked up): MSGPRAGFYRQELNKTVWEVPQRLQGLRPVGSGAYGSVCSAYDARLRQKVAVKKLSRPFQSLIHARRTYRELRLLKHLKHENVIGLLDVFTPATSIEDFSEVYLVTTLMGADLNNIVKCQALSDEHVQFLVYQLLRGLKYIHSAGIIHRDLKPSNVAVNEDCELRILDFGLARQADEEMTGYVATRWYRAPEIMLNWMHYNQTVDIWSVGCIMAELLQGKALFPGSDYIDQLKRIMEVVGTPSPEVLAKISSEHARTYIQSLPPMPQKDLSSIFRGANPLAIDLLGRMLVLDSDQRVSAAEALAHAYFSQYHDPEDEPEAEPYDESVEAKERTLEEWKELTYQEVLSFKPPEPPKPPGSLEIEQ
Chain of CSNK2A2 (human) (P19784 whole entry, looked up): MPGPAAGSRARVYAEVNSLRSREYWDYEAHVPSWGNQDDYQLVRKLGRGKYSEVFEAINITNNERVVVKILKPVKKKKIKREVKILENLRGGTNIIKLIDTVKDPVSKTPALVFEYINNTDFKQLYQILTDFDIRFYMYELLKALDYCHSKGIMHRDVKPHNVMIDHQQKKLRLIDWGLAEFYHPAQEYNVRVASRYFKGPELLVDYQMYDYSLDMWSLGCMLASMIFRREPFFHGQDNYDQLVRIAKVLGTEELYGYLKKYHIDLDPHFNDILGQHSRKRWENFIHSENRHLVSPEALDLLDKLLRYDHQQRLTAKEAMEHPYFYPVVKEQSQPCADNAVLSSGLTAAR
Chain of PRKCH (human) (P24723 whole entry, looked up): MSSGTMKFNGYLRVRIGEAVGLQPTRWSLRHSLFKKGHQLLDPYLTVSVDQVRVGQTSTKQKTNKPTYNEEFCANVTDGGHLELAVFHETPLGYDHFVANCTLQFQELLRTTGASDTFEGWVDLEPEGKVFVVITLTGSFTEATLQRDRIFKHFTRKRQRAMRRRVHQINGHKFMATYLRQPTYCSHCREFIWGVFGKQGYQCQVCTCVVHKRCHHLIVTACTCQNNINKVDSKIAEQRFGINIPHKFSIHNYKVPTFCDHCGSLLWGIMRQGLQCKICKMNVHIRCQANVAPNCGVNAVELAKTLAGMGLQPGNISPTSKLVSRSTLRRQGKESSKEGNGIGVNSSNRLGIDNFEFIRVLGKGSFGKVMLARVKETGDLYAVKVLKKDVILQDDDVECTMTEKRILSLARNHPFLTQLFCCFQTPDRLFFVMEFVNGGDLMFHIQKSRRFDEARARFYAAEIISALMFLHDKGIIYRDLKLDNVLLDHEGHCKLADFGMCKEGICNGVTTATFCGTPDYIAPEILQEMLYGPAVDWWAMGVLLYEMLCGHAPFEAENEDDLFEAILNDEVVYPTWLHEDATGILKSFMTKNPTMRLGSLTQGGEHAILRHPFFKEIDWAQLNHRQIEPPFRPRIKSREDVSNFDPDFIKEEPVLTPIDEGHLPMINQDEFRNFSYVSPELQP
Chain of MARK4 (human) (Q96L34 whole entry, looked up): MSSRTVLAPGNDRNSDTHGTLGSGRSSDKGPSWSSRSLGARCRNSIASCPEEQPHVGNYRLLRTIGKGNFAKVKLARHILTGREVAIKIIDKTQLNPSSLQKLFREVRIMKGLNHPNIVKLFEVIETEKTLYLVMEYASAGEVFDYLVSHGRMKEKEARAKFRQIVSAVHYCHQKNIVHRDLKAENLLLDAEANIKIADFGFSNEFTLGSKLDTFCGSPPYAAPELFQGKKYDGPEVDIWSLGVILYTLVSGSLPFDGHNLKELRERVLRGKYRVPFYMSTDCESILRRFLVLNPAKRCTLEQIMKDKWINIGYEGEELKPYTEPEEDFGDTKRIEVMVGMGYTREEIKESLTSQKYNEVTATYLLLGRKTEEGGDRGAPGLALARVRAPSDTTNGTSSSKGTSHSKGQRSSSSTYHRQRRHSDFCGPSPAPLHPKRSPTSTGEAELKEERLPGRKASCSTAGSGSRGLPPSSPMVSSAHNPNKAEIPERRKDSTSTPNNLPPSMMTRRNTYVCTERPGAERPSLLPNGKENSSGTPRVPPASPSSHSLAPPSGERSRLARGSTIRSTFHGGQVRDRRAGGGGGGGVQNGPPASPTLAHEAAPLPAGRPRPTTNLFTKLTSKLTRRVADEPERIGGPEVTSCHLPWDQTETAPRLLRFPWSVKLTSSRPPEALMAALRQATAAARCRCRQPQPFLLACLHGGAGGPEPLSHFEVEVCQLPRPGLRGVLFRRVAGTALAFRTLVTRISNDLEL
Chain of PAK7 (human) (Q9P286 whole entry, looked up): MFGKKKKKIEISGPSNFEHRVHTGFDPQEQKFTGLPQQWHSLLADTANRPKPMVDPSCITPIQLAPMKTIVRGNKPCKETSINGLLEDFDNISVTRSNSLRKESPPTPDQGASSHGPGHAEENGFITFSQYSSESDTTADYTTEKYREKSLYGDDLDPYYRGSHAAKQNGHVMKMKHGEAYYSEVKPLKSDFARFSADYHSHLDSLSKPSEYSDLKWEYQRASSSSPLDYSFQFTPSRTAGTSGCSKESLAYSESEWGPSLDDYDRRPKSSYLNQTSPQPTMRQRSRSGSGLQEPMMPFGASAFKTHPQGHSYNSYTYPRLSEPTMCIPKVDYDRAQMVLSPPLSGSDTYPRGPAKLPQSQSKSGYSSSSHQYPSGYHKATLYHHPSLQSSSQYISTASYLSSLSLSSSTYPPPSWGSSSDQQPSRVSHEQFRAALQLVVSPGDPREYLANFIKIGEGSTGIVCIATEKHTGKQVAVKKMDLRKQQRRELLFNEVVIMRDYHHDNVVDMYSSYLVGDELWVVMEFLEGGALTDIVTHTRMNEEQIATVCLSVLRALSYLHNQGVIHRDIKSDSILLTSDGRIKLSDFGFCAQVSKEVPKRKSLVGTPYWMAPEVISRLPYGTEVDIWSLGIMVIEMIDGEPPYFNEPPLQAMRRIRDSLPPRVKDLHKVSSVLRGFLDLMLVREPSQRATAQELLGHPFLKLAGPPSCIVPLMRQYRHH
Chain of PRKD2 (human) (Q9BZL6 whole entry, looked up): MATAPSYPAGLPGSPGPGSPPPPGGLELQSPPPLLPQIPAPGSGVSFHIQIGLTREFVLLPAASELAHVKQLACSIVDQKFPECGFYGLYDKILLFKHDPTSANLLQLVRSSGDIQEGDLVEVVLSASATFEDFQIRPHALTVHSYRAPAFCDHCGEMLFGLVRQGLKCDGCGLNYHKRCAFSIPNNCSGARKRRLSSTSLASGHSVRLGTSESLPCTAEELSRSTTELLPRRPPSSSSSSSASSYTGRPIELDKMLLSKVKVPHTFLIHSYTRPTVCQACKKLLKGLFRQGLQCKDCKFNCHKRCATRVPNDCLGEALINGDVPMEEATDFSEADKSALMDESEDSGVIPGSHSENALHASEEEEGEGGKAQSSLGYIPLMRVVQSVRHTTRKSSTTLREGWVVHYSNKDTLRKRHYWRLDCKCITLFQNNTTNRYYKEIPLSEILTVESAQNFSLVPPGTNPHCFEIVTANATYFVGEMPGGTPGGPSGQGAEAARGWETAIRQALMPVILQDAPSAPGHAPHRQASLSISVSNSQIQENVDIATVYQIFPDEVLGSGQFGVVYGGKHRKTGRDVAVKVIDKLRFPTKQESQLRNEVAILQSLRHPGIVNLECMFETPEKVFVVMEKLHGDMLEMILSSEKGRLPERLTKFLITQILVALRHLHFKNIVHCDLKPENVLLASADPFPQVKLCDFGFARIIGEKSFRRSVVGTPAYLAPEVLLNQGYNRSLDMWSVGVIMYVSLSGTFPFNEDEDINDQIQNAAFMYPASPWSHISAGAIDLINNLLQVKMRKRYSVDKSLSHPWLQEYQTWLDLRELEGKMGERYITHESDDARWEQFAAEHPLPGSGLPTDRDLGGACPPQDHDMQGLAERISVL
Chain of MAPK8 (human) (P45983 whole entry, looked up): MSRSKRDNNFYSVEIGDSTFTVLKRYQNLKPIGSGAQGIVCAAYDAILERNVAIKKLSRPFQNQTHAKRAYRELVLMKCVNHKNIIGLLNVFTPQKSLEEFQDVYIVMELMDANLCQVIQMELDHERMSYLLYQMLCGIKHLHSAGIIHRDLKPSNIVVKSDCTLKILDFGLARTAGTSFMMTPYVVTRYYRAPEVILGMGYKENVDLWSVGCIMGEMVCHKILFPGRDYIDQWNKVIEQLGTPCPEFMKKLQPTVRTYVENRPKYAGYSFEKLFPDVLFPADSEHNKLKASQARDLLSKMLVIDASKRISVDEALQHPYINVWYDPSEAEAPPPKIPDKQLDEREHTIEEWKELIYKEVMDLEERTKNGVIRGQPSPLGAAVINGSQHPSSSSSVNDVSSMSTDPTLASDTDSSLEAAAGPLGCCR

O=C(Nc1cccc(Nc2nccc(Nc3cccc(C(F)(F)F)c3)n2)c1)C1CC1
residual activity (ROS1 (human)): 65.5%
residual activity (CHEK1 (human)): 96.6%
residual activity (ABL2 (human)): 83.8%
residual activity (TBK1 (human)): 91%
residual activity (MAPK10 (human)): 99%
residual activity (IRAK1 (human)): 96.4%
residual activity (MAPK8 (human)): 85.7%
residual activity (IKBKB (human)): 97.9%
residual activity (DYRK4 (human)): 107%
residual activity (ROCK1 (human)): 101%
residual activity (PRKD2 (human)): 101%
residual activity (TSSK2 (human)): 97.1%
residual activity (PRKCB2 (human)): 98%
residual activity [1]: 74%
residual activity (PAK7 (human)): 89.2%
residual activity (CAMK2D (human)): 93.5%
residual activity (BRAF (human)): 104%
residual activity (MAPKAPK5 (human)): 91.9%
residual activity (PIM3 (human)): 106%
residual activity (CSNK2A2 (human)): 95.4%
residual activity (MARK4 (human)): 108%
residual activity (MAP3K11 (human)): 89.5%
residual activity (MAPK11 (human)): 103%
residual activity (PRKCD (human)): 87.9%
residual activity (PRKCH (human)): 98.6%
residual activity (CSNK1A1 (human)): 95.8%
residual activity (STK39 (human)): 94.1%
residual activity (CSNK1G3 (human)): 93.5%
residual activity (ROCK2 (human)): 105%
residual activity (DYRK1B (human)): 96.3%
residual activity (EPHB1 (human)): 85.6%
residual activity (PAK4 (human)): 87.4%
residual activity (STK17A (human)): 97.6%
residual activity (SIK2 (human)): 103%
residual activity (ABL1 (human)): 94.9%
residual activity (CDK4 CCND1 (human)): 101%
residual activity (CLK4 (human)): 84.3%
residual activity (JAK2 JH1 JH2 (human)): 47.7%
residual activity (NUAK1 (human)): 67.2%
residual activity (MAPK3 (human)): 98.2%

CC(C)N(CCC(=O)c1ccc2ccccc2c1)Cc1ccccc1
residual activity (ROS1 (human)): 113%
residual activity (CHEK1 (human)): 106%
residual activity (ABL2 (human)): 100%
residual activity (TBK1 (human)): 92.4%
residual activity (MAPK10 (human)): 91.1%
residual activity (IRAK1 (human)): 102%
residual activity (MAPK8 (human)): 88%
residual activity (IKBKB (human)): 101%
residual activity (DYRK4 (human)): 88.5%
residual activity (ROCK1 (human)): 98.6%
residual activity (PRKD2 (human)): 98.5%
residual activity (TSSK2 (human)): 100%
residual activity (PRKCB2 (human)): 101%
residual activity [1]: 112%
residual activity (PAK7 (human)): 98.5%
residual activity (CAMK2D (human)): 90%
residual activity (BRAF (human)): 95.6%
residual activity (MAPKAPK5 (human)): 96.6%
residual activity (PIM3 (human)): 105%
residual activity (CSNK2A2 (human)): 95.4%
residual activity (MARK4 (human)): 89.3%
residual activity (MAP3K11 (human)): 97%
residual activity (MAPK11 (human)): 108%
residual activity (PRKCD (human)): 94%
residual activity (PRKCH (human)): 97.3%
residual activity (CSNK1A1 (human)): 88.4%
residual activity (STK39 (human)): 88.3%
residual activity (CSNK1G3 (human)): 99%
residual activity (ROCK2 (human)): 92.8%
residual activity (DYRK1B (human)): 101%
residual activity (EPHB1 (human)): 96.8%
residual activity (PAK4 (human)): 90.4%
residual activity (STK17A (human)): 104%
residual activity (SIK2 (human)): 103%
residual activity (ABL1 (human)): 101%
residual activity (CDK4 CCND1 (human)): 103%
residual activity (CLK4 (human)): 91.7%
residual activity (JAK2 JH1 JH2 (human)): 97.5%
residual activity (NUAK1 (human)): 97.1%
residual activity (MAPK3 (human)): 98.5%

O=C1NC(=O)/C(=C/c2ccc3c(c2)OC(F)(F)O3)S1
residual activity (ROS1 (human)): 88.5%
residual activity (CHEK1 (human)): 101%
residual activity (ABL2 (human)): 96%
residual activity (TBK1 (human)): 93.3%
residual activity (MAPK10 (human)): 102%
residual activity (IRAK1 (human)): 84.2%
residual activity (MAPK8 (human)): 95.1%
residual activity (IKBKB (human)): 96.1%
residual activity (DYRK4 (human)): 97.7%
residual activity (ROCK1 (human)): 93.7%
residual activity (PRKD2 (human)): 91.5%
residual activity (TSSK2 (human)): 101%
residual activity (PRKCB2 (human)): 97.6%
residual activity [1]: 104%
residual activity (PAK7 (human)): 93%
residual activity (CAMK2D (human)): 97.1%
residual activity (BRAF (human)): 96.3%
residual activity (MAPKAPK5 (human)): 98.2%
residual activity (PIM3 (human)): 39.8%
residual activity (CSNK2A2 (human)): 29.9%
residual activity (MARK4 (human)): 97.8%
residual activity (MAP3K11 (human)): 97.8%
residual activity (MAPK11 (human)): 95.7%
residual activity (PRKCD (human)): 93.2%
residual activity (PRKCH (human)): 92.7%
residual activity (CSNK1A1 (human)): 88.4%
residual activity (STK39 (human)): 110%
residual activity (CSNK1G3 (human)): 91.4%
residual activity (ROCK2 (human)): 92.4%
residual activity (DYRK1B (human)): 101%
residual activity (EPHB1 (human)): 95.6%
residual activity (PAK4 (human)): 90%
residual activity (STK17A (human)): 90.4%
residual activity (SIK2 (human)): 101%
residual activity (ABL1 (human)): 98.5%
residual activity (CDK4 CCND1 (human)): 97.1%
residual activity (CLK4 (human)): 88.8%
residual activity (JAK2 JH1 JH2 (human)): 92.9%
residual activity (NUAK1 (human)): 91.8%
residual activity (MAPK3 (human)): 91.6%
